Experimental data as given in paper PMC9873307, “Methylone, a rapid acting entactogen with robust anxiolytic and antidepressant-like activity” (Frontiers in Psychiatry, 2023).
Read-outs that look alike come from different tables or passages of the source.

Legend:
[1] = cited from earlier work; for reduced immobility in the FST: FST literature
[2] = set-up: method as in PMID 10080230; settings: cited from earlier work
male Sprague Dawley rats [3] = assay: Forced swim test (FST); assay type: in vivo, rat; settings: for swimming vs vehicle: Figure 3G
Procedure: (§1) Male Sprague Dawley rats (Charles River Laboratories) weighing 180–200 g on arrival, were used for all behavioral studies, which took place at Melior Discovery (Exton, PA, USA). Rats acclimated to their home cages for at least 1 week before testing, were maintained in a controlled environment on a 12 h light/dark cycle, with no more than 2 rats per cage. Animals received ad libitum access to standard rodent chow and water and were assigned randomly to treatment groups. All animal use and procedures were in accordance with established protocols approved by the Melior IACUC committee, Melior Standard Operation Procedures (SOP), and Transcend Therapeutics. Distinct cohorts of animals were used for each experiment/Figure presented in this manuscript.
(§2) Methylone HCl (0.5–30 mg/kg; Cayman Chemical) or Fluoxetine HCl (10 mg/kg; Sigma-Aldrich) were formulated in sterile 0.9% saline vehicle before IP administration. Control animals received saline vehicle. Methylone or saline was administered 30 min prior to FST or OFT testing sessions. Fluoxetine or saline were administered 23.5, 5, and 1 h prior to testing, consistent with previous studies ([19]).
All studies were performed and scored by an experimenter blind to treatment group according to standard protocols at Melior Discovery (Exton, PA, USA) and based on published “modified FST” procedures ([20]). Briefly, rats were placed in a circular plexiglass container (29.2 cm diameter, 49.5 cm height) filled with water to a depth of 30 cm so rats could not support themselves by touching the bottom of the tank. Water was maintained at 22–25°C and was changed for every animal. Day 1 (Training) consisted of a 15 min acclimation trial, and Day 2 (Testing, 24 h later) consisted of the 5 min test. A time sampling procedure was employed where animals were observed every 5 s for the duration of the test session (60 counts or 5 min) and scored for immobility (defined as the failure to struggle), swimming (defined as a circular movement around the tank), or climbing (defined as an upward escape behavior). Data are expressed as the percent time spent immobile, swimming, or climbing for the 5-min testing session (e.g., the number of immobility counts divided by 60). Therefore, to extrapolate these values to time spent immobile in minutes, one can multiply the percent time immobile by 5 min.

male Sprague Dawley rats [4] = assay: Open field test (OFT): locomotor activity and time in center; assay type: in vivo, rat
Procedure: as §1, §2
All studies were performed by an experimenter blind to treatment group and according to standard protocols at Melior Discovery (Exton, PA, USA). The OFT was used to assess both locomotor activity and anxiety-like behavior. The OFT was run in a standard rat OFA chamber (17 ^^′′ × 17 ^^′′ × 12 ^^′′ , Med Associates). After habituation to the testing room and drug injection, rats were assessed for 30 min in the OFT using an automated activity monitoring system (MedAssociates). Locomotor activity was measured by recording the total ambulatory distance traveled (cm), reported in 5-min bins for the duration of the 30 min testing period. The center of the open field was defined as a 12 ^^′′ square, a predefined center setting on the MedAssociates analysis software. Time spent in the center of the open field, an anxiolytic measure, was also recorded for the 30 min testing period.

SMILES: CNC(C)Cc1ccc2c(c1)OCO2 (stereo not shown) [MDMA, 3,4-methylenedioxymethamphetamine]
- reduced immobility in the FST [1]: 47–78%
- reduction of immobility compared to vehicle controls ([1]; FST): 47–78%
- effect on anxiety ([2]; clinically relevant doses): no effect
- effect on anxiety ([2]; higher doses): anxiogenic

SMILES: CNCCCN1c2ccccc2CCc2ccccc21 [desipramine]
- reduced immobility in the FST [1]: 55–75%

SMILES: CNCCC(Oc1ccc(C(F)(F)F)cc1)c1ccccc1 (stereo not shown) [fluoxetine, reference compound]
- climbing behavior vs controls (male Sprague Dawley rats [3]; fluoxetine 10 mg/kg IP x3, Figure 1E): unaffected
- swimming behavior vs controls (male Sprague Dawley rats [3]; fluoxetine 10 mg/kg IP x3, Figure 1G): significantly increased
- climbing vs vehicle on retest (male Sprague Dawley rats [3]; fluoxetine 10 mg/kg IP x3, 1 h, 24, 72 h, Figure 3E): no effect on climbing
- swimming vs vehicle (male Sprague Dawley rats [3]; fluoxetine 10 mg/kg IP x3, 1 h post-dose): significantly increased swimming
- swimming vs vehicle (male Sprague Dawley rats [3]; fluoxetine 10 mg/kg IP x3, 24 h post-dose): small but significant increase in swimming
- immobility vs vehicle on retest (male Sprague Dawley rats [3]; fluoxetine 10 mg/kg IP x3, tested 1 h, retested 24 and 72 h later, Figure 3C): only showed a significant effect on immobility 1 h post-dose
- reduction/change in immobility vs vehicle control (male Sprague Dawley rats [3]; fluoxetine 10 mg/kg IP, three doses 23.5, 5, 1 h before testing): 50%
- swimming compared to vehicle (male Sprague Dawley rats [3]; fluoxetine 10 mg/kg x3 alone or with methylone 5 mg/kg, Figure 6D): significantly increased swimming
- duration of reduction in immobility (male Sprague Dawley rats [3]; fluoxetine 10 mg/kg, three doses within 24 h before testing): less than 24 h
- reduced immobility in the FST [1]: 56%
- distance traveled, first 5 min (male Sprague Dawley rats [4]; fluoxetine 10 mg/kg IP x3, 1 h post-dose, Figure 4B): reduced distance traveled
- distance traveled over 30-min session, 5-min bins (male Sprague Dawley rats [4]; fluoxetine 10 mg/kg IP x3, Figure 4E): reduced distance traveled in the OFT for the first 15 min
- time spent in the center (male Sprague Dawley rats [4]; fluoxetine 10 mg/kg IP x3, Figure 5B): significantly reduced time spent in the center

SMILES: CNC1(c2ccccc2Cl)CCCCC1=O (stereo not shown) [ketamine]
- reduced immobility in the FST [1]: 25–62%

SMILES: Fc1ccc([C@@H]2CCNC[C@H]2COc2ccc3c(c2)OCO3)cc1 [paroxetine]
- reduced immobility in the FST [1]: 40%

SMILES: CN(C)CCc1c[nH]c2cccc(OP(=O)(O)O)c12 [psilocybin]
- reduced immobility in the FST [1]: 67%

SMILES: CN[C@H]1CC[C@@H](c2ccc(Cl)c(Cl)c2)c2ccccc21 [sertraline]
- reduced immobility in the FST [1]: 50–68%
